Article PMC3589280 (Channels, 2013)

Tests used:
[1] = biological target: T1, rBASIC (rat bile acid-sensitive ion channel) (Rattus norvegicus, UniProt Q9R0W5); assay: oocyte current recording, co-application; assay type: cell-based; conditions: 0.5 mM CDCA co-applied with 1.0 mM UDCA; CDCA not tested alone here
T1 sequence (Q9R0W5 1-495): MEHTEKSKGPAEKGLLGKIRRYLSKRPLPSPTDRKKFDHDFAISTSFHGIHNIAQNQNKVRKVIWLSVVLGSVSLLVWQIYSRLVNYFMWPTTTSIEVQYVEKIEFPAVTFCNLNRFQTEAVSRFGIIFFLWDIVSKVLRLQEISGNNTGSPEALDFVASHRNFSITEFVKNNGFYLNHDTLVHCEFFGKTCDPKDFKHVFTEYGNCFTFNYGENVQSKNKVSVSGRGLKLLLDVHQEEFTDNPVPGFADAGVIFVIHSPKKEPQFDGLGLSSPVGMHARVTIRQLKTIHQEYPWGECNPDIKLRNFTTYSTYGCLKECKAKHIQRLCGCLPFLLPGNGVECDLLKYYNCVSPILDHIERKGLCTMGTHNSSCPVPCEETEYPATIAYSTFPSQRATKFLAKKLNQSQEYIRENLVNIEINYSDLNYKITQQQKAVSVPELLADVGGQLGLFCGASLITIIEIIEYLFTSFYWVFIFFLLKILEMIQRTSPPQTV

[2] = biological target: T1, rBASIC (rat bile acid-sensitive ion channel); assay: oocyte current recording, concentration-response, Hill fit; assay type: cell-based

Row | Structure (SMILES) | oocyte current recording, co-application [1] | EC50 [2] [mM]
1 | C[C@H](CCC(=O)O)[C@H]1CC[C@H]2[C@@H]3[C@H](O)C[C@@H]4C[C@H](O)CC[C@]4(C)[C@H]3CC[C@]12C [CDCA] | CDCA and UDCA synergistically activate rBASIC | 
2 | C[C@H](CCC(=O)O)[C@H]1CC[C@H]2[C@@H]3[C@@H](O)C[C@@H]4C[C@H](O)CC[C@]4(C)[C@H]3CC[C@]12C [UDCA] |  | 2.5 ± 0.04
3 | C[C@H](CCC(=O)O)[C@H]1CC[C@H]2[C@@H]3C[C@H](O)[C@@H]4C[C@H](O)CC[C@]4(C)[C@H]3CC[C@]12C [HDCA] |  | 2.1 ± 0.04
